Here are results for 15 compounds from patent US10259810B2, “N-sulfonylated pyrazolo[3,4-b]pyridin-6-carboxamides and method of use” (AbbVie S.à.r.l., priority 2015, dated 2019).

Common to all, as to format: cell-based
The target of assay [1] is T1, ΔF508-CFTR (Homo sapiens, UniProt P13569, DEL508-508).
T1 construct: host or cells: CFBE41o-, doxycycline-inducible
Nature of the assay: CFTR cell surface levels using HRP-tagged ΔF508-CFTR expressing CFBE cells, in the presence of a co-corrector. The following applies: HRP-tagged ΔF508-CFTR CFBE cells, in the presence of 3 μM co-corrector; for EC50: read-out: EC50. In a few lines: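 Chemiluminescent read-out of surface HRP (15 min, dark) after PBS washes. Activity is normalized as 100×(sample−DMSO)/(3 μM co-corrector alone−DMSO).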

The target in assay [2] is T1, ΔF508-CFTR. Nature of the assay: CFTR cell surface levels using HRP-tagged ΔF508-CFTR expressing CFBE cells, intrinsic corrector capacity. More on the design: % Activation: concentration or dose not given beside the values. Conditions: HRP-tagged ΔF508-CFTR expressing CFBE41o- cells, compound alone (intrinsic corrector capacity), 20 hours at 33° C.; for EC50: read-out: EC50. In a few lines: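 Surface ΔF508-CFTR was measured as HRP chemiluminescence from an extracellular-loop-4 tag, expressed as percent activity between DMSO and a […] corrector control.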

The target of assay [3] is T2, CFTR ΔF508 (Homo sapiens, UniProt P13569, DEL508-508).
T2 construct: bronchial epithelial cells isolated from CF patients homozygous for the CFTR ΔF508 mutation; McGill University; Asterand; University of North Carolina hAEC-CF; host or cells: primary human bronchial epithelial cells from CF patients homozygous for ΔF508, differentiated at air-liquid interface
Nature of the assay: Chronic TECC assay, primary bronchial epithelial cells of CF patients homozygous for CFTR ΔF508 (corrector, co-corrector and potentiator). Conditions: chronic TECC; for % Activity at 3 μM (AUC**): test compound at 3 μM; for % Activity at 1 μM (AUC**): test compound at 1 μM. Summed up: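 Primary bronchial epithelial cells from ΔF508-homozygous CF patients on collagen IV-coated Transwells were chronically treated with test compound plus corrector and potentiator, which were re-added before recording. Ieq was derived from PD and Rt in NaCl-Ringer, pH 7.4, at 37° C, with apical amiloride and bilateral forskolin, recorded every 2 min over 20 min. Ieq increase was normalized to controls, and EC50 was taken from per-well concentrations.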

Setting [4] is: AUC = full area under the curve upon forskolin stimulation, read-out: EC50 (nM) (AUC**).
Setting [5] is: AUC = full area under the curve upon forskolin stimulation.

Read-outs that look alike come from different tables or passages of the source.

T2 sequence (P13569 with tags, fused parts or gaps DEL508-508): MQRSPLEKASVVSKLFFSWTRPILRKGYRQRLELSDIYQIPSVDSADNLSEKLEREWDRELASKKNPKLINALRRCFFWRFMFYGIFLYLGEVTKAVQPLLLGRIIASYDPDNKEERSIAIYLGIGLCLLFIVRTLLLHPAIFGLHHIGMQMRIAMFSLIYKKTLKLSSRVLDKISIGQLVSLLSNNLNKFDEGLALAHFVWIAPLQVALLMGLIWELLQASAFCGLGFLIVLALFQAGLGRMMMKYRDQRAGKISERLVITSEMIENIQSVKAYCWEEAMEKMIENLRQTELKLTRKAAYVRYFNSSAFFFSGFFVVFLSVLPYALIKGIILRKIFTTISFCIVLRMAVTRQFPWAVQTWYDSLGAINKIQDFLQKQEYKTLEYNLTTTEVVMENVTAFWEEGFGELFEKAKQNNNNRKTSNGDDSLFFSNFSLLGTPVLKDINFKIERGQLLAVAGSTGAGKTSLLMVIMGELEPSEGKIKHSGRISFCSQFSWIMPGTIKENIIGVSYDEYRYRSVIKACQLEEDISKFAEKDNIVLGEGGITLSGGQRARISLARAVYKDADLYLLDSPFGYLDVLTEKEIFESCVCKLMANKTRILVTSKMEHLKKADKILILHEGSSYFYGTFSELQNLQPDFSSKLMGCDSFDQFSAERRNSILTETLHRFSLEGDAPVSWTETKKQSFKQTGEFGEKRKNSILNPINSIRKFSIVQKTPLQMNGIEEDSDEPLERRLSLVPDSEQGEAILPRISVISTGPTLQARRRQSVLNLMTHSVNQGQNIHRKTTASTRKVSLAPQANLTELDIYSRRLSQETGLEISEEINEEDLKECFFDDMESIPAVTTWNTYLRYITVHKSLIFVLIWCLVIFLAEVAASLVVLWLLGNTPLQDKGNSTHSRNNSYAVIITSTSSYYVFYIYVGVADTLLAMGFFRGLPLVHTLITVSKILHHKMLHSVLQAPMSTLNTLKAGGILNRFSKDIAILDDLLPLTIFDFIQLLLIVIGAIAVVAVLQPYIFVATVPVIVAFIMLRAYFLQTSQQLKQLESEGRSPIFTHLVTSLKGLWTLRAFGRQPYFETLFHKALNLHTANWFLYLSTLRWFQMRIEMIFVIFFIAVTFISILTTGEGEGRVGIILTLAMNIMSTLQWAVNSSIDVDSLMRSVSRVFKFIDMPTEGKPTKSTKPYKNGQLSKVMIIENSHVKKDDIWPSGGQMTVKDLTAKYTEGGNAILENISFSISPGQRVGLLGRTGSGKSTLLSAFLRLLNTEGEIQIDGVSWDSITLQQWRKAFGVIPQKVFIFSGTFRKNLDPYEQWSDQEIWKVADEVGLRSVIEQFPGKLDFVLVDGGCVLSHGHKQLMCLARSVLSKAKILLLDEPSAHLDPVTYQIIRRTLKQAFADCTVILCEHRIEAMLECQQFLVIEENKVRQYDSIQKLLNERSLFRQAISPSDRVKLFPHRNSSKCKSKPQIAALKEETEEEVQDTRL
T1 sequence (P13569 with tags, fused parts or gaps DEL508-508): as above

On to `COCC1CN(C2CCN(c3cc(C(=O)NS(=O)(=O)N(C)C)nc4c3c(C3CCC3)nn4-c3ccc(F)cc3)CC2)CCO1` (stereo not drawn) [Compound 379, 3-cyclobutyl-N-(dimethylsulfamoyl)-1-(4-fluorophenyl)-4-{4-[2-(methoxymethyl)morpholin-4-yl]piperidin-1-yl}-1H-pyrazolo[3,4-b]pyridine-6-carboxamide], for which the “% Activation” value in assay [1] was 440.55%; in assay [2] it was 268.45%. Further, the EC50 – broadly, the midpoint of the concentration-response curve – in assay [1] was found to be 61.1 nM; in assay [2], 141 nM; in assay [3] (setting [4]) it was 43 nM.

Consider `CC(C)N1CCN(C2CCN(c3cc(C(=O)NS(=O)(=O)N(C)C)nc4c3c(C3CCC3)nn4-c3ccc(F)cc3)CC2)CC1` [Compound 382, 3-cyclobutyl-N-(dimethylsulfamoyl)-1-(4-fluorophenyl)-4-{4-[4-(propan-2-yl)piperazin-1-yl]piperidin-1-yl}-1H-pyrazolo[3,4-b]pyridine-6-carboxamide], for which the “% Activation” value was 500.01% in assay [1] and 305.9% in assay [2]. Further, the EC50 in assay [1] is 158 nM; in assay [2], 261 nM; in assay [3] (Ieq = calculations based on the maximum current, read-out: EC50 (nM) (Ieq*)) it was 205 nM. In addition, the “% Activity at 3 μM (AUC**)” value in assay [3] (setting [5]) was found to be 347%.

With `COCC1CCN(c2cc(C(=O)NS(C)(=O)=O)nc3c2c(C2CCC2)nn3-c2ccnc(OC)c2)CC1` [Compound 385, 3-cyclobutyl-N-(methanesulfonyl)-4-[4-(methoxymethyl)piperidin-1-yl]-1-(2-methoxypyridin-4-yl)-1H-pyrazolo[3,4-b]pyridine-6-carboxamide], the figures for the “% Activation” value in assay [1] and in assay [2] were 393.53% and 227.5%, respectively. In addition, the EC50 in assay [1] was found to be 64 nM; in assay [2] it was 121 nM; in assay [3] (setting [4]), 12.3 nM.

For the compound `COCC1CCN(c2cc(C(=O)NS(=O)(=O)N3CCOCC3)nc3c2c(C2CCC2)nn3-c2ccccc2)CC1` [Compound 396, 3-cyclobutyl-4-[4-(methoxymethyl)piperidin-1-yl]-N-(morpholine-4-sulfonyl)-1-phenyl-1H-pyrazolo[3,4-b]pyridine-6-carboxamide], in assay [1], the “% Activation” value came out at 385.8% and the EC50 stood at 55 nM. Besides, in assay [2], the “% Activation” value was found to be 222.9% and the EC50 turned out to be 121 nM. Moreover, in assay [3] (setting [5]), the “% Activity at 3 μM (AUC**)” value is 259.4666%.

Regarding `COCC1CCN(c2cc(C(=O)NS(=O)(=O)N3CCC(N4CCOCC4)CC3)nc3c2c(C2CCC2)nn3-c2ccccc2)CC1` [Compound 397, 3-cyclobutyl-4-[4-(methoxymethyl)piperidin-1-yl]-N-[4-(morpholin-4-yl)piperidine-1-sulfonyl]-1-phenyl-1H-pyrazolo[3,4-b]pyridine-6-carboxamide], in assay [1], the “% Activation” value came out at 381.8% and the EC50 turned out to be 49 nM. Further, in assay [2], the “% Activation” value came to 234.5% and the EC50 worked out at 155 nM. In addition, in assay [3] (setting [5]), the “% Activity at 3 μM (AUC**)” value is on record as 251.7766%.

In the case of `COCC1CCN(c2cc(C(=O)NS(=O)(=O)N3CCC(F)CC3)nc3c2c(C2CCC2)nn3-c2ccccc2)CC1` [Compound 399, 3-cyclobutyl-N-(4-fluoropiperidine-1-sulfonyl)-4-[4-(methoxymethyl)piperidin-1-yl]-1-phenyl-1H-pyrazolo[3,4-b]pyridine-6-carboxamide], in assay [1], the “% Activation” value amounted to 388.77% and the half-maximal effective concentration (EC50) was found to be 44.2 nM. In assay [2], the “% Activation” value was 237.5% and the EC50 stood at 72.1 nM. For the same compound, the “% Activity at 1 μM (AUC**)” value in assay [3] (setting [5]) came to 244.7508%.

For the compound `COCC1CCN(c2cc(C(=O)NS(=O)(=O)N3CCN(C)CC3)nc3c2c(C2CCC2)nn3-c2ccccc2)CC1` [Compound 400, 3-cyclobutyl-4-[4-(methoxymethyl)piperidin-1-yl]-N-(4-methylpiperazine-1-sulfonyl)-1-phenyl-1H-pyrazolo[3,4-b]pyridine-6-carboxamide], in assay [1], the “% Activation” value was 365.43% and the EC50 stood at 157 nM. Also, in assay [2], the “% Activation” value came out at 180.65% and the EC50 was 163 nM. The “% Activity at 1 μM (AUC**)” value in assay [3] (setting [5]) turned out to be 230%.

With `COCC1CCN(c2cc(C(=O)NS(=O)(=O)N(C)C)nc3c2c(C2CCC2)nn3-c2ccccc2)CC1` [Compound 402, 3-cyclobutyl-N-(dimethylsulfamoyl)-4-[4-(methoxymethyl)piperidin-1-yl]-1-phenyl-1H-pyrazolo[3,4-b]pyridine-6-carboxamide], the “% Activation” value came to 471.42% in assay [1] and 303.5% in assay [2]. The EC50 in assay [1] worked out at 116 nM; in assay [2], 312 nM; in assay [3] (setting [4]) it was 12.1 nM. For the same compound, in assay [3] (setting [5]), the “% Activity at 1 μM (AUC**)” value came to 345.045%.

`CC(C)Oc1nn(C2CCCCC2)c2nc(C(=O)NS(C)(=O)=O)cc(-c3ccc(CN4CCOCC4)cc3)c12` [Compound 404, 1-cyclohexyl-N-(methanesulfonyl)-4-{4-[(morpholin-4-yl)methyl]phenyl}-3-[(propan-2-yl)oxy]-1H-pyrazolo[3,4-b]pyridine-6-carboxamide]: in assay [1], the “% Activation” value came out at 370% and the EC50 came to 126 nM. Besides, in assay [2], the “% Activation” value came out at 181.2% and the EC50 worked out at 186 nM. Moreover, the “% Activity at 1 μM (AUC**)” value in assay [3] (setting [5]) turned out to be 433.3333%.

As to `COCCS(=O)(=O)NC(=O)c1cc(-c2ccc(CN3CCOCC3)cc2)c2c(OC(C)C)nn(C3CCCCC3)c2n1` [Compound 405, 1-cyclohexyl-N-(2-methoxyethanesulfonyl)-4-{4-[(morpholin-4-yl)methyl]phenyl}-3-[(propan-2-yl)oxy]-1H-pyrazolo[3,4-b]pyridine-6-carboxamide], in assay [1], the “% Activation” value was 326.9% and the EC50 came out at 102 nM. In assay [2], the “% Activation” value is recorded as 160.8% and the EC50 was 191 nM. Moreover, the “% Activity at 1 μM (AUC**)” value in assay [3] (setting [5]) is recorded as 323.3333%.

For the compound `CC(C)Oc1nn(C2CCCCC2)c2nc(C(=O)NS(=O)(=O)N(C)C)cc(-c3ccc(CN4CCOCC4)cc3)c12` [Compound 406, 1-cyclohexyl-N-(dimethylsulfamoyl)-4-{4-[(morpholin-4-yl)methyl]phenyl}-3-[(propan-2-yl)oxy]-1H-pyrazolo[3,4-b]pyridine-6-carboxamide], the “% Activation” value in assay [1] worked out at 311.35%; in assay [2], 125.95%. Further, the figures for the EC50 in assay [1] and in assay [2] were 182 nM and 241 nM, respectively. Moreover, the “% Activity at 1 μM (AUC**)” value in assay [3] (setting [5]) is listed as 235%.

On to `COCCS(=O)(=O)NC(=O)c1cc(N2CCC(N3CCOCC3)CC2)c2c(C3CCC3)nn(-c3ccc(F)cc3)c2n1` [Compound 407, 3-cyclobutyl-1-(4-fluorophenyl)-N-(2-methoxyethanesulfonyl)-4-[4-(morpholin-4-yl)piperidin-1-yl]-1H-pyrazolo[3,4-b]pyridine-6-carboxamide], for which the results for the “% Activation” value in assay [1] and in assay [2] were 494.15% and 331.45%, respectively. The EC50 is 124 nM in assay [1], 497 nM in assay [2] and 48.9 nM in assay [3] (setting [4]). Also, the “% Activity at 1 μM (AUC**)” value in assay [3] (setting [5]) was determined as 310%.

For the compound `CN(C)S(=O)(=O)NC(=O)c1cc(N2CCC(CN3CCOCC3)CC2)c2c(C3CCC3)nn(-c3ccc(F)cc3)c2n1` [Compound 409, 3-cyclobutyl-N-(dimethylsulfamoyl)-1-(4-fluorophenyl)-4-{4-[(morpholin-4-yl)methyl]piperidin-1-yl}-1H-pyrazolo[3,4-b]pyridine-6-carboxamide], the entries for the “% Activation” value in assay [1] and in assay [2] were 481.1% and 245.4%, respectively. For the same compound, the EC50 in assay [1] stood at 108 nM; in assay [2], 155 nM; in assay [3] (setting [4]), 150 nM. Moreover, the “% Activity at 1 μM (AUC**)” value in assay [3] (setting [5]) turned out to be 420%.

`CS(=O)(=O)NC(=O)c1cc(N2CCC(CN3CCOCC3)CC2)c2c(C3CCC3)nn(-c3ccc(F)cc3)c2n1` [Compound 410, 3-cyclobutyl-1-(4-fluorophenyl)-N-(methanesulfonyl)-4-{4-[(morpholin-4-yl)methyl]piperidin-1-yl}-1H-pyrazolo[3,4-b]pyridine-6-carboxamide]: the entries for the “% Activation” value in assay [1] and in assay [2] were 529.58% and 337.42%, respectively. Besides, the EC50 in assay [1] stood at 82.4 nM; in assay [2] it was 213 nM; in assay [3] (setting [4]), 1.58 nM. Moreover, the “% Activity at 1 μM (AUC**)” value in assay [3] (setting [5]) came out at 233.3333%.

Turning to `COCCS(=O)(=O)NC(=O)c1cc(N2CCC(CCN3CCOCC3)CC2)c2c(C3CCC3)nn(-c3ccc(F)cc3)c2n1` [Compound 415, 3-cyclobutyl-1-(4-fluorophenyl)-N-(2-methoxyethanesulfonyl)-4-{4-[2-(morpholin-4-yl)ethyl]piperidin-1-yl}-1H-pyrazolo[3,4-b]pyridine-6-carboxamide], the “% Activation” value turned out to be 598% in assay [1] and 365.4% in assay [2]. For the same compound, the figures for the EC50 in assay [1], in assay [2] and in assay [3] (setting [4]) were 69.3 nM, 165 nM and 28.4 nM, respectively. The “% Activity at 1 μM (AUC**)” value in assay [3] (setting [5]) worked out at 196.1812%.
